# Source: patent US20060134063A1, “Agents for proliferating pancreatic beta-cells of the islets of langerhans, agents for suppressing apoptosis of said cells, and screening of candidate compounds for these agents” (priority 2000, published 2006)
# Tests used:
# [1] = target: T1, poly(ADP-ribose) synthetase/polymerase (PARP) (Rattus norvegicus, UniProt P27008); assay: GMSA binding reaction of RINm5F nuclear extracts, effects of ADP-ribosylation; assay type: biochemical; conditions: for intensity of the IL-6/dexamethasone/nicotinamide-dependent GMSA band: added to the binding reaction prior to the 32P-probe
# T1 construct: Nuclear extracts from RINm5F cells were prepared as described; endogenous in cells; host or cells: RINm5F (rat insulinoma) nuclear extract
# Method: The nuclear extract (10 μg) was incubated in a final volume of 20 μl of buffer containing 20 mM Tris-HCl (pH 7.9), 2 mM MgCl2, 50 mM NaCl, 2 mM EDTA, 10% glycerol, 0.1% Nonidet P-40, 1 mM DTT, 50 μg/ml bovine serum albumin and 1 μg of poly(dI-dC). After incubation for 10 min at room temperature, 2.5 pmol of double-stranded DNA, previously labeled by an exchange reaction using MEGALABEL (Takara Shuzo) and [γ-^32P]ATP (Amersham Pharmacia Biotech), were added and incubated for 30 min at room temperature, then the binding reactions were resolved on pre-run 6% acrylamide gel. […] After electrophoresis, DNA/proteins were electrophoretically transferred to a PolyScreen™ PVDF membrane (NEN).
# Poly(ADP-ribosyl)ation of nuclear proteins was performed in the same condition as GMSA in the presence of 62 nM [adenylate-^32P]NAD^+ (2×10^6 cpm, NEN). The ADP-ribosylated proteins were precipitated by the addition of 9 volume of acetone, separated by SDS-PAGE (12.5%) and autoradiographed.
# [2] = system: 5'-flanking region of the rat Reg gene; assay: Reg promoter/luciferase reporter assay in RINm5F cells; assay type: cell-based; conditions: 2,303-bp Reg 5'-flanking fragment; 24 h stimulation
# Method: A 2,303-bp fragment containing the 5′-flanking region of Reg gene was fused to the luciferase gene and transfected into RINm5F β-cells.
# Specifically, luciferase reporter gene constructs were generated as described in Miyashita, H. et al. (1994) Biochim. Biophys. Acta, 1219, 241-243. RINm5F cells were seeded at 1×10^5 cells/well in 24-well dish. After 48 h, 3.0 μg of test plasmid and 0.2 μg of pCMV-SPORT β-gal (Life Technologies, Inc.) were transfected by lipofection (Felgner, J. H. et al. (1994) J. Biol. Chem., 269, 2550-2561) using DMRIE-C™ (Life Technologies, Inc.). After 24 h, the medium of each dish was replaced with fresh medium containing stimulants and incubated further for 24 h. Cells were harvested in 1 ml of ice-cold phosphate-buffered saline (PBS), washed twice with PBS, and extracts were prepared in extraction buffer (0.1 M potassium phosphate, pH 6.8, 1 mM DTT). The protein concentration was determined using a Coomassie reagent kit (Pierce) and bovine serum albumin as a standard. Luciferase activity was determined by a chemiluminescence substrate using a Pica Gene™ Luminescence Kit (Toyo Ink Mfg. Co, Ltd., Tokyo, Japan). β-galactosidase activity was determined using Aurora™ GAL-XE (ICN).
# [3] = system: Reg gene; assay: RT-PCR of Reg gene expression in RINm5F cells; assay type: cell-based, rat; conditions: 24 h with stimulants
# Method: The Reg gene expression was analyzed by RT-PCR. The cells were harvested after 24 h of culturing in a medium supplemented with stimulants, and total RNA was prepared using cesium trifluoroacetate as described in Takasawa, S. et al. (1993) J. Biol. Chem., 268, 26052-26054. RT-PCR was performed using primers corresponding to nucleotides 23 to 43 and 572 to 593 of rat Reg mRNA (Terazono, K. et al. (1988) J. Biol. Chem., 263, 2111-2114).
# [4] = system: Reg protein; assay: Immunoblot of secreted Reg protein in RINm5F culture medium; assay type: cell-based, rat; conditions: 24 h incubation with stimulants
# Method: The Reg protein levels in the RINm5F cultured media were examined after stimulation. After 24-hour incubation of the cells in a medium supplemented with stimulants, the medium was collected, and subjected to immunoblot analyses as described in Watanabe, T. et al. (1990) J. Biol. Chem., 265, 7432-7439. The medium of RINm5F cells was subjected to SDS polyacrylamide gel electrophoresis (SDS-PAGE) and electrotransferred to a PVDF membrane as described in Takasawa, S. et al. (1993) J. Biol. Chem., 268, 26052-26054. Western blotting was carried out using an anti-rat Reg monoclonal antibody (Terazono, K. et al. (1990) Diabetologia, 33, 250-252).
# [5] = system: 90% depancreatized rats; conditions: cited from earlier work
# [6] = system: RINm5F cell lines, #1, #6, and #24, which stably express the Reg protein receptor; assay: TUNEL apoptosis assay in RINm5F cell lines #1, #6, #24 expressing Reg protein receptor; assay type: cell-based, rat; conditions: HGF 0, 2.5, 25 ng/ml; 24 h; every cell line
# Method: Rat insulinoma RINm5F cell lines, #1, #6, and #24, which stably express Reg protein receptor (Kobayashi, S. et al. (2000) J. Biol. Chem. 275, 10723-10726) were similarly cultured as in Example 4 and 1,000 nM Reg protein and HGF at varied concentrations, 0, 2.5, and 25 ng/ml were added thereto. Twenty-four hours after the addition of Reg protein/HGF, apoptosis was measured by TUNEL method using an Apoptosis Screening kit (Wako Pure Chemical Industries Ltd., Osaka, Japan) as described in Kobayashi, S. et al. (2000) J. Biol. Chem. 275, 10723-10726.
# [7] = system: non-obese diabetic (NOD) mice; conditions: cited from earlier work
# [8] = system: RINm5F cell lines, #1, #6, and #24, which stably express the Reg protein receptor; conditions: 1,000 nM Reg protein added to culture media; cited from earlier work
# T1 sequence (P27008 whole entry): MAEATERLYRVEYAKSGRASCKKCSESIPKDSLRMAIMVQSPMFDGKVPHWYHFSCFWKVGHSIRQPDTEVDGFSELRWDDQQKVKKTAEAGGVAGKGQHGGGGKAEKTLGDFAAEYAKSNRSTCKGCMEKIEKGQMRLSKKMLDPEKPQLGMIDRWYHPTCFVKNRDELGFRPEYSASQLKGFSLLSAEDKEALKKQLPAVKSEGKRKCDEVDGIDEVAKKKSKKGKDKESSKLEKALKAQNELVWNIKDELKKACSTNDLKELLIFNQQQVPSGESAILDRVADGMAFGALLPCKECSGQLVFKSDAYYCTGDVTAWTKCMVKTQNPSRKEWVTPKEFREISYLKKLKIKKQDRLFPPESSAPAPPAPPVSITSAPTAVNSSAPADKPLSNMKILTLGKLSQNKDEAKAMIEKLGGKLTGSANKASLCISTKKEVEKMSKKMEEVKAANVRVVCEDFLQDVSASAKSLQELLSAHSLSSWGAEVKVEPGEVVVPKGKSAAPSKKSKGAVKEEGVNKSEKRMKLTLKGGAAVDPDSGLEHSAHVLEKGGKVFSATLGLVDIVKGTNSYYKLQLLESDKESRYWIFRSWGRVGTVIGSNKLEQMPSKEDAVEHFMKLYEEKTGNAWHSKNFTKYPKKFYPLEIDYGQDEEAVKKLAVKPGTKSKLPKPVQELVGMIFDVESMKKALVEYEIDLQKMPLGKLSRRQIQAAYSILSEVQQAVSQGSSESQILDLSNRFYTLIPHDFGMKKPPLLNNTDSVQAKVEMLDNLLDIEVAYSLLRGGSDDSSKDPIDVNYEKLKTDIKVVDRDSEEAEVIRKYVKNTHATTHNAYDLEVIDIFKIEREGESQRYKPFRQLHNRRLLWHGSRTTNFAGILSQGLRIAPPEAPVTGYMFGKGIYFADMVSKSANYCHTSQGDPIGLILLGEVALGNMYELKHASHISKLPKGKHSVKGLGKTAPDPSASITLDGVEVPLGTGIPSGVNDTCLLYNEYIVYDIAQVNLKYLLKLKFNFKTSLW
molecule,measurement,setting,value
NC(=O)c1ccc[n+]([C@H]2O[C@H](COP(=O)(O)OP(=O)(O)OC[C@H]3O[C@@H](n4cnc5c(N)ncnc54)[C@H](O)[C@@H]3O)[C@@H](O)[C@H]2O)c1 [α-NAD^+],intensity of the IL-6/dexamethasone/nicotinamide-dependent GMSA band,[1],not
N=c1c2ncn3c2ncn1[C@@H]1O[C@H](COP(=O)(O)OP(=O)(O)OC[C@H]2O[C@@H]3[C@H](O)[C@@H]2O)[C@@H](O)[C@H]1O [cyclic ADP-ribose],intensity of the IL-6/dexamethasone/nicotinamide-dependent GMSA band,[1],did not attenuate the band intensity
"IL-6: interleukin (IL)-6, a cytokine whose receptor is gp130 (Genzyme)",luciferase activity (result in words),[2],ineffective
same,Reg gene expression (Reg mRNA),[3],no effect on Reg expression
same,Reg protein secretion into the medium,[4],did not induce Reg protein secretion
NC(=O)c1cccc(N)c1 [3-aminobenzamide],luciferase activity (result in words),[2],ineffective
same,Reg gene expression (Reg mRNA),[3],no effect on Reg expression
same,development of diabetes after 90% pancreatectomy,[5]; PARP inhibitor-treated rats,preventing the development of diabetes
same,IC50,"[1]; 1 mM β-NAD+ in the GMSA binding reaction, read-out: concentrations of half maximal inhibition (quenching of the effect of β-NAD+ on the GMSA band)",30 µM
HGF: hepatocyte growth factor (HGF; Sigma),"apoptosis induced by 1,000 nM Reg protein (TUNEL)",[6],concentration-dependently inhibited apoptosis
NC(=O)c1ccc[n+]([C@@H]2O[C@H](COP(=O)([O-])OP(=O)(O)OC[C@H]3O[C@@H](n4cnc5c(N)ncnc54)[C@H](O)[C@@H]3O)[C@@H](O)[C@H]2O)c1 [β-NAD^+],intensity of the IL-6/dexamethasone/nicotinamide-dependent GMSA band,[1],attenuated
"IL-1β: IL-1β (Sigma), stimulant",Reg gene expression (Reg mRNA),[3],no effect on Reg expression
TNFα,Reg gene expression (Reg mRNA),[3],no effect on Reg expression
Nc1ncnc2c1ncn2[C@@H]1O[C@H](COP(=O)(O)OP(=O)(O)OC[C@H]2OC(O)[C@H](O)[C@@H]2O)[C@@H](O)[C@H]1O (some centres unmarked) [ADP-ribose],intensity of the IL-6/dexamethasone/nicotinamide-dependent GMSA band,[1],did not attenuate the band intensity
"Human REG protein: human REG protein, 166-amino acid protein with 68% identity to rat Reg protein (protein, UniProt P05451 1-166, looked up, full-length, human REG protein, 166-amino acid protein with 68% identity to rat Reg protein) MAQTSSYFMLISCLMFLSQSQGQEAQTELPQARISCPEGTNAYRSYCYYFNEDRETWVDADLYCQNMNSGNLVSVLTQAEGAFVASLIKESGTDDFNVWIGLHDPKKNRRWHWSSGSLVSYKSWGIGAPSSVNPGYCVSLTSSTGFQKWKDVPCEDKFSFVCKFKN",β-cell mass,[7],induced an expansion of the β-cell mass
"Recombinant rat Reg protein: recombinant rat Reg protein, 165-amino acid protein with a 21-amino acid signal peptide (protein, UniProt P10758 1-165, looked up, full-length, recombinant rat Reg protein, 165-amino acid protein with a 21-amino acid signal peptide) MTRNKYFILLSCLMVLSPSQGQEAEEDLPSARITCPEGSNAYSSYCYYFMEDHLSWAEADLFCQNMNSGYLVSVLSQAEGNFLASLIKESGTTAANVWIGLHDPKNNRRWHWSSGSLFLYKSWDTGYPNNSNRGYCVSVTSNSGYKKWRDNSCDAQLSFVCKFKA",β-cell replication and β-cell mass in the residual pancreas,[5]; 90% depancreatized rats,stimulated β-cell replication and increased the β-cell mass
"Reg protein: product of Reg (regenerating gene), stimulates β-cell proliferation (protein) QEAEEDLPSARITCPEGSNAYSSYCYYFMEDHLSWAEADLFCQNMNSGYLVSVLSQAEGNFLASLIKESGTTAANVWIGLHDPKNNRRWHWSSGSLFLYKSWDTGYPNNSNRGYCVSVTSNSGYKKWRDNSCDAQLSFVCKFKA",proliferation and apoptosis of the cells,[8],induced not only proliferation but also apoptosis
